From patent publication US9113629B2, “4-amino-6-(4-substituted-phenyl)-picolinates and 6-amino-2-(4-substituted-phenyl)-pyrimidine-4-carboxylates and their use as herbicides” (DOW AGROSCIENCES LLC, priority 2013, dated 2015)

Tested on: test plant species in Direct Seeded Rice
Assay: Postemergence herbicidal activity in direct seeded rice (Table 13)
Type: in vivo
Conditions: BRAPP: broadleaf signalgrass, Brachiaria platyphylla; probit analysis
Source text: Seeds or nutlets of the desired test plant species were planted in a soil matrix prepared by mixing a loam soil (43 percent silt, 19 percent clay, and 38 percent sand, with a pH of about 8.1 and an organic matter content of about 1.5 percent) and river sand in an 80 to 20 ratio. The soil matrix was contained in plastic pots with a surface area of 139.7 cm^2. When required to ensure good germination and healthy plants, a fungicide treatment and/or other chemical or physical treatment was applied. The plants were grown for 10-17 d in a greenhouse with an approximate 14-h photoperiod which was maintained at about 29° C. during the day and 26° C. during the night. Nutrients and water were added on a regular basis and supplemental lighting was provided with overhead metal halide 1000-Watt lamps as necessary. The plants were employed for testing when they reached the second or third true leaf stage. A weighed amount, determined by the highest rate to be tested, of each test compound was placed in 25 mL glass vials and dissolved in a volume of 97:3 v/v acetone-DMSO to obtain 12× stock solutions. […] The concentrated stock solutions were added to the spray solutions so that the final acetone and DMSO concentrations were 16.2% and 0.5%, respectively. Spray solutions were diluted to the appropriate final concentrations with the addition of 10 mL of an aqueous mixture of 1.5% (v/v) Agri-dex crop oil concentrate. […] Compound requirements are based upon a 12 mL application volume at a rate of 187 L/ha. Formulated compounds were applied to the plant material with an overhead Mandel track sprayer equipped with […] nozzles calibrated to deliver 187 L/ha over an application area of 0.503 square meters (m^2) at a spray height of 18 inches (43 cm) above average plant canopy height. Control plants were sprayed in the same manner with the solvent blank. The treated plants and control plants were placed in a greenhouse as described above and watered by sub-irrigation to prevent wash-off of the test compounds. After 20-22 days, the condition of the test plants, compared with that of the untreated plants, was determined visually and scored on a scale of 0 to 100 percent where 0 corresponds to no injury and 100 corresponds to complete kill. By applying the well-accepted probit analysis as described by J. Berkson in Journal of the American Statistical Society, 48, 565 (1953) and by D. Finney in “Probit Analysis” Cambridge University Press (1952), the above data can be used to calculate GR20, GR50, GR80 and GR90 values, which are defined as growth reduction factors that correspond to the effective dose of herbicide required to kill or control 20 percent, 50 percent, 80 percent or 90 percent, respectively, of a target plant.

Structure (SMILES) | GR50 BRAPP [g ai/ha] | GR80 BRAPP [g ai/ha]
Nc1cc(-c2ccc(I)cc2F)nc(C(=O)O)c1Cl [Compound 124] | 4 | 8
Nc1c(Cl)c(C(=O)O)nc(-c2ccc(Br)cc2)c1Cl [Compound 125] | 46 | >70

Same assay, conditions: CYPSS: sedge (Cyperus difformis, esculentus, iria); probit analysis

Structure (SMILES) | GR50 CYPSS [g ai/ha] | GR80 CYPSS [g ai/ha]
Nc1cc(-c2ccc(I)cc2F)nc(C(=O)O)c1Cl [Compound 124] | 1 | 1
Nc1c(Cl)c(C(=O)O)nc(-c2ccc(Br)cc2)c1Cl [Compound 125] | 4 | 10

Same assay, conditions: ECHSS: barnyardgrass (Echinochloa crus-galli), junglerice (Echinochloa colonum); probit analysis

Structure (SMILES) | GR50 ECHSS [g ai/ha] | GR80 ECHSS [g ai/ha]
Nc1cc(-c2ccc(I)cc2F)nc(C(=O)O)c1Cl [Compound 124] | 2 | 6
Nc1c(Cl)c(C(=O)O)nc(-c2ccc(Br)cc2)c1Cl [Compound 125] | 40 | >70

Same assay, conditions: LEFSS: sprangletop (Leptochloa chinensis, Leptochloa dubia); probit analysis

Structure (SMILES) | GR50 LEFSS [g ai/ha] | GR80 LEFSS [g ai/ha]
Nc1cc(-c2ccc(I)cc2F)nc(C(=O)O)c1Cl [Compound 124] | 7 | 16
Nc1c(Cl)c(C(=O)O)nc(-c2ccc(Br)cc2)c1Cl [Compound 125] | 43 | >70

Same assay, conditions: ORYSS: Oryza sativa (crop); probit analysis

Structure (SMILES) | GR20 ORYSS [g ai/ha]
Nc1cc(-c2ccc(I)cc2F)nc(C(=O)O)c1Cl [Compound 124] | 1
Nc1c(Cl)c(C(=O)O)nc(-c2ccc(Br)cc2)c1Cl [Compound 125] | 0

Same assay, conditions: SCPJU: Japanese bulrush, Scirpus juncoides; probit analysis

Structure (SMILES) | GR50 SCPJU [g ai/ha] | GR80 SCPJU [g ai/ha]
Nc1cc(-c2ccc(I)cc2F)nc(C(=O)O)c1Cl [Compound 124] | 1 | 1
Nc1c(Cl)c(C(=O)O)nc(-c2ccc(Br)cc2)c1Cl [Compound 125] | 1 | 1

Same assay, conditions: SEBEX: hemp sesbania, Sesbania exaltata; probit analysis

Structure (SMILES) | GR50 SEBEX [g ai/ha] | GR80 SEBEX [g ai/ha]
Nc1cc(-c2ccc(I)cc2F)nc(C(=O)O)c1Cl [Compound 124] | 1 | 1
Nc1c(Cl)c(C(=O)O)nc(-c2ccc(Br)cc2)c1Cl [Compound 125] | 1 | 1

Same assay, conditions: post-emergence, 504 h; BRAPP: broadleaf signalgrass, Brachiaria platyphylla; 35 g ai/ha; read-out: Visual Growth Reduction (%) 21 Days After Application BRAPP

Structure (SMILES) | pest or weed control at 35 g/ha [%]
Nc1cc(-c2ccc(I)cc2F)nc(C(=O)O)c1Cl [Compound 124] | 95 to 100
Nc1c(Cl)c(C(=O)O)nc(-c2ccc(Br)cc2)c1Cl [Compound 125] | 45 to 59

Same assay, conditions: post-emergence, 504 h; BRAPP: broadleaf signalgrass, Brachiaria platyphylla; 70 g ai/ha; read-out: Visual Growth Reduction (%) 21 Days After Application BRAPP

Structure (SMILES) | pest or weed control at 70 g/ha [%]
Nc1cc(-c2ccc(I)cc2F)nc(C(=O)O)c1Cl [Compound 124] | 95 to 100
Nc1c(Cl)c(C(=O)O)nc(-c2ccc(Br)cc2)c1Cl [Compound 125] | 60 to 74

Same assay, conditions: post-emergence, 504 h; CYPSS: sedge (Cyperus difformis, esculentus, iria); 35 g ai/ha; read-out: Visual Growth Reduction (%) 21 Days After Application CYPSS

Structure (SMILES) | pest or weed control at 35 g/ha [%]
Nc1cc(-c2ccc(I)cc2F)nc(C(=O)O)c1Cl [Compound 124] | 95 to 100
Nc1c(Cl)c(C(=O)O)nc(-c2ccc(Br)cc2)c1Cl [Compound 125] | 95 to 100

Same assay, conditions: post-emergence, 504 h; CYPSS: sedge (Cyperus difformis, esculentus, iria); 70 g ai/ha; read-out: Visual Growth Reduction (%) 21 Days After Application CYPSS

Structure (SMILES) | pest or weed control at 70 g/ha [%]
Nc1cc(-c2ccc(I)cc2F)nc(C(=O)O)c1Cl [Compound 124] | 95 to 100
Nc1c(Cl)c(C(=O)O)nc(-c2ccc(Br)cc2)c1Cl [Compound 125] | 95 to 100

Same assay, conditions: post-emergence, 504 h; ECHSS: barnyardgrass (Echinochloa crus-galli), junglerice (Echinochloa colonum); 35 g ai/ha; read-out: Visual Growth Reduction (%) 21 Days After Application ECHSS

Structure (SMILES) | pest or weed control at 35 g/ha [%]
Nc1cc(-c2ccc(I)cc2F)nc(C(=O)O)c1Cl [Compound 124] | 95 to 100
Nc1c(Cl)c(C(=O)O)nc(-c2ccc(Br)cc2)c1Cl [Compound 125] | 45 to 59

Same assay, conditions: post-emergence, 504 h; ECHSS: barnyardgrass (Echinochloa crus-galli), junglerice (Echinochloa colonum); 70 g ai/ha; read-out: Visual Growth Reduction (%) 21 Days After Application ECHSS

Structure (SMILES) | pest or weed control at 70 g/ha [%]
Nc1cc(-c2ccc(I)cc2F)nc(C(=O)O)c1Cl [Compound 124] | 95 to 100
Nc1c(Cl)c(C(=O)O)nc(-c2ccc(Br)cc2)c1Cl [Compound 125] | 60 to 74

Same assay, conditions: post-emergence, 504 h; LEFSS: sprangletop (Leptochloa chinensis, Leptochloa dubia); 35 g ai/ha; read-out: Visual Growth Reduction (%) 21 Days After Application LEFSS

Structure (SMILES) | pest or weed control at 35 g/ha [%]
Nc1cc(-c2ccc(I)cc2F)nc(C(=O)O)c1Cl [Compound 124] | 95 to 100
Nc1c(Cl)c(C(=O)O)nc(-c2ccc(Br)cc2)c1Cl [Compound 125] | 45 to 59

Same assay, conditions: post-emergence, 504 h; LEFSS: sprangletop (Leptochloa chinensis, Leptochloa dubia); 70 g ai/ha; read-out: Visual Growth Reduction (%) 21 Days After Application LEFSS

Structure (SMILES) | pest or weed control at 70 g/ha [%]
Nc1cc(-c2ccc(I)cc2F)nc(C(=O)O)c1Cl [Compound 124] | 95 to 100
Nc1c(Cl)c(C(=O)O)nc(-c2ccc(Br)cc2)c1Cl [Compound 125] | 60 to 74

Same assay, conditions: post-emergence, 504 h; ORYSS: Oryza sativa; 35 g ai/ha; read-out: Visual Growth Reduction (%) 21 Days After Application ORYSS

Structure (SMILES) | pest or weed control at 35 g/ha [%]
Nc1cc(-c2ccc(I)cc2F)nc(C(=O)O)c1Cl [Compound 124] | 60 to 74
Nc1c(Cl)c(C(=O)O)nc(-c2ccc(Br)cc2)c1Cl [Compound 125] | 0 to 29

Same assay, conditions: post-emergence, 504 h; ORYSS: Oryza sativa; 70 g ai/ha; read-out: Visual Growth Reduction (%) 21 Days After Application ORYSS

Structure (SMILES) | pest or weed control at 70 g/ha [%]
Nc1cc(-c2ccc(I)cc2F)nc(C(=O)O)c1Cl [Compound 124] | 85 to 94
Nc1c(Cl)c(C(=O)O)nc(-c2ccc(Br)cc2)c1Cl [Compound 125] | 0 to 29

Same assay, conditions: post-emergence, 504 h; SCPJU: Japanese bulrush, Scirpus juncoides; 35 g ai/ha; read-out: Visual Growth Reduction (%) 21 Days After Application SCPJU

Structure (SMILES) | pest or weed control at 35 g/ha [%]
Nc1cc(-c2ccc(I)cc2F)nc(C(=O)O)c1Cl [Compound 124] | 95 to 100
Nc1c(Cl)c(C(=O)O)nc(-c2ccc(Br)cc2)c1Cl [Compound 125] | 95 to 100

Same assay, conditions: post-emergence, 504 h; SCPJU: Japanese bulrush, Scirpus juncoides; 70 g ai/ha; read-out: Visual Growth Reduction (%) 21 Days After Application SCPJU

Structure (SMILES) | pest or weed control at 70 g/ha [%]
Nc1cc(-c2ccc(I)cc2F)nc(C(=O)O)c1Cl [Compound 124] | 95 to 100
Nc1c(Cl)c(C(=O)O)nc(-c2ccc(Br)cc2)c1Cl [Compound 125] | 95 to 100

Same assay, conditions: post-emergence, 504 h; SEBEX: hemp sesbania, Sesbania exaltata; 35 g ai/ha; read-out: Visual Growth Reduction (%) 21 Days After Application SEBEX

Structure (SMILES) | pest or weed control at 35 g/ha [%]
Nc1cc(-c2ccc(I)cc2F)nc(C(=O)O)c1Cl [Compound 124] | 95 to 100
Nc1c(Cl)c(C(=O)O)nc(-c2ccc(Br)cc2)c1Cl [Compound 125] | 95 to 100

Same assay, conditions: post-emergence, 504 h; SEBEX: hemp sesbania, Sesbania exaltata; 70 g ai/ha; read-out: Visual Growth Reduction (%) 21 Days After Application SEBEX

Structure (SMILES) | pest or weed control at 70 g/ha [%]
Nc1cc(-c2ccc(I)cc2F)nc(C(=O)O)c1Cl [Compound 124] | 95 to 100
Nc1c(Cl)c(C(=O)O)nc(-c2ccc(Br)cc2)c1Cl [Compound 125] | 95 to 100
